According to publication PMC12860560, “Chromosome-level genome assembly of Cornus officinalis reveals the evolution of loganin biosynthesis” (Horticulture Research, 2025):

Biological target: T1, CrLAMT (Catharanthus roseus, UniProt B2KPR3)
T1 construct: gene LAMT; pBI121 vector, expressed in Nicotiana benthamiana
T1 sequence (B2KPR3 1-371): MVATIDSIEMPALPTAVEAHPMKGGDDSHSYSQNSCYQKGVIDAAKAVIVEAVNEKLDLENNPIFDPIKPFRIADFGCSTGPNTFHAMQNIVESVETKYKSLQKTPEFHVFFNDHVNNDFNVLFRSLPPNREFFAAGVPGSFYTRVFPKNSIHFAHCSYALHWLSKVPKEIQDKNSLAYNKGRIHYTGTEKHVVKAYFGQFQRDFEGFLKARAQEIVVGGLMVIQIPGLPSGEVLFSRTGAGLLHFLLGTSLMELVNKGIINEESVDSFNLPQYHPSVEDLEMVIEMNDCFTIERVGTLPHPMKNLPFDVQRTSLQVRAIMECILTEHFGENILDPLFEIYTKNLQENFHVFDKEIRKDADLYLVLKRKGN
Experiment: HPLC of product loganin
Assay type: cell-based
Details: expressed in N. benthamiana; preparation of the HPLC assay not told

In the case of C[C@@H]1[C@H]2[C@H](O[C@@H]3O[C@H](CO)[C@@H](O)[C@H](O)[C@H]3O)OC=C(C(=O)O)[C@H]2C[C@@H]1O [loganic acid], the “HPLC of product loganin” value is reported as “production of loganin by CaLAMT, CrLAMT, and CoLAMT using loganic acid as the substrate”.
